A short description of data set [1]: Evaluation of CI-1027 in female obese Zucker rats (body weight and liver weight). In kind it is in vivo. The following applies: for Body Weight Day 0: Day 0 (baseline), mean ± SEM; for Body Weight Day 0 / Body Weight Day 7 / Body Weight Day 14 / Body Weight Day 21 / Body Weight Day 28 / Body Weight Day 32 / Liver Weight Day 32 / Percent Liver/Body Weight: n = 6; for Body Weight Day 7: Day 7, mean ± SEM; for Body Weight Day 14: Day 14, mean ± SEM; for Body Weight Day 21: Day 21, mean ± SEM; for Body Weight Day 28: Day 28, mean ± SEM; for Body Weight Day 32 / Liver Weight Day 32 / Percent Liver/Body Weight: Day 32, mean ± SEM. As for the experimental part: Adult female obese Zucker rats weighing 265 to 268 g were obtained from Genetic Models, Inc. The animals were maintained on a diet of pelleted rodent chow (Ralston Purina) and were given water ad libitum. The animals were housed in cages in a temperature controlled room, with a 12-hour light/12-hour dark cycle (lights were turned on at 6 AM each day). CI-1027 was suspended in a vehicle of 1.5% carboxymethylcellulose containing 0.2% Tween-20. A control group of six rats were dosed daily with vehicle alone. One group of six test animals received daily oral dosing (by gavage) of 2.5 mL/kg suspensions of CI-1027 at 30 mg/kg active drug, while another group of six animals received daily oral dosing of 2.5 mL/kg of suspension at 100 mg/kg of CI-1027. The pelleted rodent chow was available ad libitun, except on Days 0, 7, 14, 21, 28, and 32, when food was removed from the cages at 7:30 AM, and the animals were weighed within 2 hours following removal of the food. The food trays were replaced in the cages after the weights of all animals were measured.

Data set [2] is described as follows: Evaluation of CI-1027 in leptin receptor deficient mice (body weight, food consumption). Type of data set: in vivo.

Where a name gives a salt, the structure may show the parent alone. Marks after values point to notes of the source that are not given here.

`CC(C)(CCCCOCCCCC(C)(C)C(=O)O)C(=O)O` [CI-1027, 6-(5-carboxy-5-methyl-hexyloxy)-2,2-diiethyl-hexanoic acid, calcium salt]: in data set [1] (30 mg/kg daily oral gavage), the “Body Weight Day 0” value amounted to 265 ± 4 g, the “Body Weight Day 7” value was 283 ± 4^a g, the “Body Weight Day 14” value was 299 ± 4^c g and the “Body Weight Day 21” value is given as 311 ± 3^c g. In data set [1] (30 mg/kg daily oral gavage), the “Body Weight Day 28” value is reported as 317 ± 4^c g, the “Body Weight Day 32” value is given as 321 ± 4^c g, the “Liver Weight Day 32” value was 22.8 ± 1.0^c g and the “Percent Liver/Body Weight” value was 7.09 ± 0.3^c Percent. For the same molecule, in data set [1] (100 mg/kg daily oral gavage), the “Body Weight Day 0” value worked out at 265 ± 4 g, the “Body Weight Day 7” value was 286 ± 3^a g, the “Body Weight Day 14” value is recorded as 302 ± 4^b g and the “Body Weight Day 21” value is on record as 314 ± 4^c g. Also, in data set [1] (100 mg/kg daily oral gavage), the “Body Weight Day 28” value is reported as 326 ± 5^c g, the “Body Weight Day 32” value is 326 ± 5^c g, the “Liver Weight Day 32” value is 24.8 ± 1.3^c g and the “Percent Liver/Body Weight” value is on record as 7.53 ± 0.3^c Percent. The reduction in weight entry in data set [1] (all treatment groups (30 and 100 mg/kg), over 32 days) is listed as “significant reduction in weight”. In data set [2], the “effect on body weight” value is on record as “no significant effect” and the “effect on food consumption” value was “no significant effect”.
